From patent US20230277630A1, “METHODS AND COMPOSITIONS FOR TREATING AMYOTROPHIC LATERAL SCLEROSIS” (Amylyx Pharmaceuticals, Inc., priority 2022, published 2023)
Values joined by “and” are separate entries in the source; they are usually repeats but may differ in a detail not shown here. Identical values can stand only once.

What was measured:
human hepatocytes = assay: Cell viability after CYP induction treatment (MTS); settings: controls: 50 μM OME, 1,000 μM phenobarbital, 50 μM RIF, 10 μM flumazenil, 72 h
Procedure: Plateable and inducible cryopreserved human hepatocytes were thawed and isolated in human hepatocyte thawing medium. […] After attachment (4 hours), the medium was changed to fresh hepatocyte culture medium for overnight cell recovery. […] A positive control (100 μM chlorpromazine) was treated in parallel. […] The absorbance of formazan, which is proportional to the number of viable cells, was measured spectrophotometrically using the CellTiter 96® AQueous One Solution Cell Proliferation Assay (MTS).
After the CYP induction treatment, the cells were used for cell viability assay. The viability of cells (expressed as the percentage of MTS absorbance relative to vehicle control) was measured as described herein.

CYP2B6 mRNA = assay: Induction of CYP2B6 mRNA in human hepatocytes (qPCR); settings: controls: 1,000 μM phenobarbital, 10 μM flumazenil, 72 h
Procedure: Plateable and inducible cryopreserved human hepatocytes were thawed and isolated in human hepatocyte thawing medium.
All experiments were performed in triplicate.
After induction treatment, CYP mRNA expression was measured by qPCR. Total RNA was isolated from the treated cells using the RNeasy® mini kit (Qiagen, Valencia, Calif., USA) and treated with RNase-free DNase (Qiagen) following the manufacturer's protocols. The concentration of RNA was determined using a Qubit® Fluorometer with a Qubit RNA HS assay kit (Invitrogen). cDNA was synthesized from up to 1 μg of the total RNA harvested from the cells using a QuantiTect® RT kit (Qiagen). Analysis of CYP gene expression by qPCR (Table 3) was performed using the LightCycler® 480 II System (Roche Diagnostics Corporation, Indianapolis, Ind., USA).
Relative mRNA was expressed as the fold-increase calculated from the normalized mRNA level (2^−ΔΔCt) relative to vehicle control. The percentage of mRNA fold-increase relative to positive control was calculated using the following equation:
% Induction relative to positive control=100×(mRNATA−mRNAvehicle)/(mRNApositive control−mRNAvehicle)

OCT2 = target: T1, OCT2 (Homo sapiens, UniProt O15244); assay: OCT2 inhibitor (IC50) assessment, MPP+ uptake in transfected HEK cells
T1 sequence (O15244 1-555): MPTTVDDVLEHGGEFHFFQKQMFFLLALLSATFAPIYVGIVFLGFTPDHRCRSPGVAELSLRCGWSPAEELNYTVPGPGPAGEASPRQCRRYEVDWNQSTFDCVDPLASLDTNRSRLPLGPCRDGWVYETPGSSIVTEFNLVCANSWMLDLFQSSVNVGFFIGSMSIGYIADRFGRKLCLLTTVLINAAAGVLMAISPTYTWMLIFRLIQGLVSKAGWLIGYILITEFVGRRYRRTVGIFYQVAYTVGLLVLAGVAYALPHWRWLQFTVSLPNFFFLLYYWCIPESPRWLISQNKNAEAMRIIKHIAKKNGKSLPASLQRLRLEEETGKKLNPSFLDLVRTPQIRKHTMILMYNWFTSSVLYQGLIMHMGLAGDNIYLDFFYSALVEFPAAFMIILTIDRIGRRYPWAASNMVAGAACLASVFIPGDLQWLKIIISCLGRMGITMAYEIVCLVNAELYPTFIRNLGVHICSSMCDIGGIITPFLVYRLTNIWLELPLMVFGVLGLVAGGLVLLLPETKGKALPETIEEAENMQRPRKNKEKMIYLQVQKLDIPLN

MATE1 = target: T2, MATE1 (Homo sapiens, UniProt Q96FL8); assay: MATE1 inhibitor (IC50) assessment, metformin uptake in transfected HEK cells
T2 sequence (Q96FL8 1-570): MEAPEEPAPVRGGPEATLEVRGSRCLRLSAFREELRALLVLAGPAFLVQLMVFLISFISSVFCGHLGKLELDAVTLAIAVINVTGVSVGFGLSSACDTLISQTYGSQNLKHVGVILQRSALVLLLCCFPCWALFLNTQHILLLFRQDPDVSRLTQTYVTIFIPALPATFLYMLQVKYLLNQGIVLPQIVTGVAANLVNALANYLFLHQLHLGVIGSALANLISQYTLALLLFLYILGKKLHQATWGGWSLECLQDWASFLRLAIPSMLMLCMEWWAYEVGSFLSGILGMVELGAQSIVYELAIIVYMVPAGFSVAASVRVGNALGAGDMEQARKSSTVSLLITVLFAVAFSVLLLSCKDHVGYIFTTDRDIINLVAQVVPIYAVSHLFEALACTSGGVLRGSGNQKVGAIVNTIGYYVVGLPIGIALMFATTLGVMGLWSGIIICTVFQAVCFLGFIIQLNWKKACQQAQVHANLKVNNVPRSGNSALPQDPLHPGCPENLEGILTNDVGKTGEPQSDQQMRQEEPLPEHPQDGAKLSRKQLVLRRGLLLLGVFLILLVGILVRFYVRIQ

MATE2K = MATE2K (Homo sapiens, UniProt Q86VL8); assay: MATE2K inhibitor (IC50) assessment, metformin uptake in transfected HEK cells
MATE2K, sequence (Q86VL8 1-566 isoform Q86VL8-3): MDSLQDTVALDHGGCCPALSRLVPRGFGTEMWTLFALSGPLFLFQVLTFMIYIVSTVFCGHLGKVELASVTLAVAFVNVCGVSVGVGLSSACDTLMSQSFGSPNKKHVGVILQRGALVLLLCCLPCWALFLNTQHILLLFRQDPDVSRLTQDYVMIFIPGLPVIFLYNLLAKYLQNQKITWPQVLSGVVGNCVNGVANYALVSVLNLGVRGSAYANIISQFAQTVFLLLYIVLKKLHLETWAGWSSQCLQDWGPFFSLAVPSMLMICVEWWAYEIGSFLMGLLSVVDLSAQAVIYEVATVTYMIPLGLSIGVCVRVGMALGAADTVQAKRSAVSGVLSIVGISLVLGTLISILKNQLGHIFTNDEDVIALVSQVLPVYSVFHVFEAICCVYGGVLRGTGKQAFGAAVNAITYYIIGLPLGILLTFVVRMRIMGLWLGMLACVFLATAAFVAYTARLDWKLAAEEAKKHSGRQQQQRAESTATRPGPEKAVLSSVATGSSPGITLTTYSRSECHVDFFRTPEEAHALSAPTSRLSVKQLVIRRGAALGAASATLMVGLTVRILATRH

P-gp and BCRP = P-gp and BCRP substrate assessment, bidirectional permeability in C2BBe1 cells; settings: C2BBe1 cells, 10 μM probe; for recovery at 10 μM / Papp A→B at 10 µM / Papp B→A at 10 µM: human; for Papp A→B at 10 µM / Papp B→A at 10 µM: Caco-2, pH 7.4, probe digoxin (P-gp), cladribine (BCRP); for Papp A→B at 10 µM: AP-to-BL Papp; for Papp B→A at 10 µM: BL-to-AP Papp
Procedure: The P-gp and BCRP substrate assessment was conducted in C2BBe1 cell monolayers. […] LY was co-dosed with each dosing solution at a nominal concentration of 200 μM.
The cell culture medium was aspirated, and the cell monolayers were rinsed once with HBSSg_7.4. […] For receiver samples, aliquots (300 μL) were taken at pre-selected time points. […] For donor samples, aliquots (50 μL) were taken at pre-selected time points without replacement.

[1] = CYP reaction phenotyping: CYP control (negative control without CYP enzymes); settings: 20 min, pH 7.4
Procedure: The reaction was initiated by the addition of NADPH, followed by incubation at 37° C.

[2] = 5 μM MPP+ alone, 2 min, replicates 1, 2 and Average
[3] = 50 μM Metformin alone, 10 min, HBSSg_8.5, replicates and Average
[4] = absence of TUDCA and PB or positive inhibitor
[5] = 50 μM Metformin alone, 10 min, HBSSg_8.5, replicates 1, 2 and Average
[6] = batch used with Sol_1, Sol_3, and Sol_4, single replicates
[7] = batch used with Sol_2, single replicates

## CCC1(c2ccccc2)C(=O)NC(=O)NC1=O [Phenobarbital, phenobarbital]
Human hepatocytes; donor 1
  % MTS Absorbance Relative to Vehicle Control: 97.7%
  Formazan Absorbance (n = 6) Mean: 0.417
Human hepatocytes; donor 2
  % MTS Absorbance Relative to Vehicle Control: 98.8%
  Formazan Absorbance (n = 6) Mean: 0.504
Human hepatocytes; donor 3
  % MTS Absorbance Relative to Vehicle Control: 108%
  Formazan Absorbance (n = 6) Mean: 0.320
CYP2B6 mRNA; donor 1
  CYP2B6 mRNA % Induction Relative to Positive Control: 100%
  CYP2B6 mRNA Fold-increase (n = 3) Mean: 21.8 fold
CYP2B6 mRNA; donor 2
  CYP2B6 mRNA % Induction Relative to Positive Control: 100%
  CYP2B6 mRNA Fold-increase (n = 3) Mean: 39.6 fold
CYP2B6 mRNA; donor 3
  CYP2B6 mRNA % Induction Relative to Positive Control: 100%
  CYP2B6 mRNA Fold-increase (n = 3) Mean: 7.36 fold

## C[n+]1ccc(-c2ccccc2)cc1 [MPP+, 1-methyl-4-phenylpyridinium]
OCT2; 5 μM MPP+ alone
  Net Influx Rate of MPP+ (OCT2): 847 pmol/mg protein/minute
OCT2; 5 μM MPP+ alone, 2 min
  influx rate ratio of MPP+ (OCT2 over vector control): 48.9
OCT2; [2]
  Influx Rate of MPP+, OCT2-HEK Cells: 896 pmol/mg protein/minute and 833 pmol/mg protein/minute
  Influx Rate of MPP+, Vector Control Cells: 19.0 pmol/mg protein/minute and 16.3 pmol/mg protein/minute
OCT2; absence of TUDCA and PB or imipramine
  influx rate ratio of MPP+ (OCT2 over vector control): 48.9

## CN(C)C(=N)N=C(N)N [metformin]
MATE1; 50 μM Metformin alone
  Net Influx Rate of Metformin (MATE1): 572 pmol/mg protein/minute
  influx rate ratio of metformin (MATE1 over vector control): 43.4
MATE1; [3]
  Influx Rate of Metformin, MATE1-HEK Cells: 515 pmol/mg protein/minute and 656 pmol/mg protein/minute
  Influx Rate of Metformin, Vector Control Cells: 15.6 pmol/mg protein/minute and 11.3 pmol/mg protein/minute
MATE1; [4]
  influx rate ratio of metformin (MATE1 over vector control): 43.4
MATE2K; 50 μM Metformin alone
  Net Influx Rate of Metformin (MATE2K): 36.1 pmol/mg protein/minute
  influx rate ratio of metformin (MATE2K over vector control): 2.70
MATE2K; [5]
  Influx Rate of Metformin, MATE2K HEK Cells: 54.5 pmol/mg protein/minute and 60.2 pmol/mg protein/minute
  Influx Rate of Metformin, Vector Control Cells: 19.6 pmol/mg protein/minute and 22.8 pmol/mg protein/minute
MATE2K; [4]
  influx rate ratio of metformin (MATE2K over vector control): 2.70

## C[C@H]1O[C@@H](O[C@H]2[C@@H](O)C[C@H](O[C@H]3[C@@H](O)C[C@H](O[C@H]4CC[C@@]5(C)[C@H](CC[C@@H]6[C@@H]5C[C@@H](O)[C@]5(C)[C@@H](C7=CC(=O)OC7)CC[C@]65O)C4)O[C@@H]3C)O[C@@H]2C)C[C@H](O)[C@@H]1O [digoxin]
P-gp and BCRP; [6]
  AP-to-BL Papp: 0.350 10^−6 cm/s and 0.234 10^−6 cm/s
  AP-to-BL Recovery: 95.3%
  BL-to-AP Papp: 14.6 10^−6 cm/s and 11.2 10^−6 cm/s
  BL-to-AP Recovery: 94.9% and 83.1%
  Papp A→B at 10 µM: 0.326 ×10⁻⁶ cm/s
  Papp B→A at 10 µM: 12.1 ×10⁻⁶ cm/s
P-gp and BCRP; [7]
  AP-to-BL Papp: 0.381 10^−6 cm/s and 0.298 10^−6 cm/s
  AP-to-BL Recovery: 92.4%
  BL-to-AP Papp: 12.1 10^−6 cm/s and 12.8 10^−6 cm/s
  BL-to-AP Recovery: 96.7% and 90.2%
  Papp A→B at 10 µM: 0.323 ×10⁻⁶ cm/s
  Papp B→A at 10 µM: 13.5 ×10⁻⁶ cm/s
P-gp and BCRP; Caco-2, pH 7.4, AP-to-BL Recovery, batch used with Sol_1, Sol_3, and Sol_4, Average
  recovery at 10 μM: 89.5%
P-gp and BCRP; Caco-2, pH 7.4, AP-to-BL Recovery, batch used with Sol_1, Sol_3, and Sol_4, single replicates
  recovery at 10 μM: 90.9%
P-gp and BCRP; Caco-2, pH 7.4, AP-to-BL Recovery, batch used with Sol_2, Average
  recovery at 10 μM: 86.3%
P-gp and BCRP; Caco-2, pH 7.4, AP-to-BL Recovery, batch used with Sol_2, single replicates
  recovery at 10 μM: 77.9%
P-gp and BCRP; Caco-2, pH 7.4, BL-to-AP Recovery, batch used with Sol_1, Sol_3, and Sol_4, Average
  recovery at 10 μM: 87.4%
P-gp and BCRP; Caco-2, pH 7.4, BL-to-AP Recovery, batch used with Sol_1, Sol_3, and Sol_4, single replicates
  recovery at 10 μM: 84.1%
P-gp and BCRP; Caco-2, pH 7.4, BL-to-AP Recovery, batch used with Sol_2, Average
  recovery at 10 μM: 92.1%
P-gp and BCRP; Caco-2, pH 7.4, BL-to-AP Recovery, batch used with Sol_2, single replicates
  recovery at 10 μM: 89.5%
P-gp and BCRP; batch used with Sol_2, Average
  Papp A→B at 10 µM: 0.334 ×10⁻⁶ cm/s
  Papp B→A at 10 µM: 12.8 ×10⁻⁶ cm/s
P-gp and BCRP; batch used with Sol_1, Sol_3, and Sol_4, Average
  Papp B→A at 10 µM: 12.6 ×10⁻⁶ cm/s

## CCN(CC)Cc1cc(Nc2ccnc3cc(Cl)ccc23)ccc1O [Amodiaquine]
[1]
  Measured Metabolite: 0 µM

## CN/C(=N/CCSCc1nc[nH]c1C)NC#N [cimetidine]
MATE1; 50 μM Metformin + 100 μM Cimetidine
  Percentage Inhibition of MATE1: 99.2%
MATE1; known inhibitor
  inhibition of metformin uptake in MATE1-transfected cells: 99.2%
